Read-outs that look alike come from different tables or passages of the source. Numbered stars: 1 amine (or outer) side, 2 acyl side, 3 side chain; on linkers, the order of the positions; unused ones are H or OH. Square brackets hold non-standard residues; d marks the D form. Peptide text beside a SMILES is read from it. * marks the point of attachment. 5FAM = O=C1OC2(c3ccc(O)cc3Oc3cc(O)ccc32)c2ccc(C(=O)*)cc21; NHCH2C6H4(4-CH2CONH2) = NC(=O)Cc1ccc(CN*)cc1; X1 = O=C(Cc1ccc(CN[*:1])cc1)[*:2]

Kd data for 5 molecules are collected here from patent publication US20230393140A1, “BINDING ASSAYS INVOLVING A PLURALITY OF SYNTHETIC COMPOUNDS, TARGETS, AND COUNTER TARGETS” (SRI International, priority 2020, published 2023).

One assay deals with T1, ASGPR (Homo sapiens, UniProt P07306).
T1 construct: purchased R&D Systems, Inc. 4394-AS
T1 sequence (P07306 1-291): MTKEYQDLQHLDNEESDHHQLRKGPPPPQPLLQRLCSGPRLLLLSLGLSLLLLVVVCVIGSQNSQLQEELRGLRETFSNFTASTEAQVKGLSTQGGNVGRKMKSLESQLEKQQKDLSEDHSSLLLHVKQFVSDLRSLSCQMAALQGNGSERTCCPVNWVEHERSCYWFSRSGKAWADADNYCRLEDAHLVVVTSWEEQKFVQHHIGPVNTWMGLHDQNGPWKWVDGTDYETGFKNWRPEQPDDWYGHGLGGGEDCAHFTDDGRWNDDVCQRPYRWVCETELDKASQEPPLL
The assay can be described thus: MST binding affinity of resynthesized NNP hits to ASGPR. The settings on record: read-out: KD (nM) [95% conf. int]; MST; NNP1 library hit; target ASGPR; one-site binding model. Here is the method: (§1) Hit binding affinity to various targets were determined using Microscale Thermophoresis (MST). MST experiments were performed on a Monolith NT.115pico (NanoTemper Technologies GmbH, Munich, Germany). Measurements were performed at room temperature, in triplicate with incubation periods of 15, 30 and 45 minutes. […] Targets were labeled using Nanotemper Monolith 2nd Generation Protein Labeling Kits. RED-MALEIMIDE (Maleimide-647-dye) labeling kit was used for K-Ras and RED-NHS (NHS-647-dye) labeling kit was used for IL-6, IL-6R, TNFα and ASGPR. The buffer for the ASGPR contained 20 mM HEPES pH 7.4, 150 mM NaCl, 10 mM MgCl2, 2 mM CaCl2, 0.05% Pluronic F-127, and 1 mM DTT; for IL-6 contained 20 mM HEPES pH 7.4, 150 mM KCl, 10 mM MgCl2, and 0.1% Pluronic F-127; for the soluble IL-6 receptor 20 mM HEPES pH 7.4, 150 mM NaCl, 10 mM MgCl2, and 0.05% Tween-20; for K-Ras 20 mM HEPES pH 7.4, 150 mM NaCl, 10 mM MgCl2, 0.05% Tween-20 and 1 mM DTT; for TNFα 10 mM HEPES pH 7.4, 150 mM NaCl, 10 mM MgCl2, 0.05% Polysorbate-20. Triplicate data was analyzed using MO.AffinityAnalysis software (NanoTemper Technologies GmbH).

A further assay concerns the target T2, IL-6 (Homo sapiens, UniProt P05231).
T2 construct: purchased Creative Biomart IL6-12H
The assay can be described thus: MST binding affinity of resynthesized NNP hits to IL-6. Here is the method: as §1

Setting [1] is: NNP2 library hit, target IL-6, one-site binding model.

`CC(C)C[C@H](NC(=O)CNC(=O)[C@@H](Cc1c[nH]cn1)NC(=O)[C@@H](CCCNC(=N)N)NC(=O)[C@H]1CCCN1C(=O)Cc1ccc(CNC(=O)[C@H](Cc2ccccc2)NC(=O)[C@@H](CO)NC(=O)[C@@H](CCCNC(=N)N)NC(=O)[C@H]2CCCN2C(=O)CNC(=O)Cc2ccc(CNC(=O)[C@H](C)NC(=O)[C@@H](CCCNC(=N)N)NC(=O)[C@H]3CCCN3C(=O)[C@H](NC(=O)CNC(=O)Cc3ccc(CNC(=O)[C@H](Cc4ccccc4)NC(=O)[C@@H](CO)NC(=O)[C@@H](CCC(=O)O)NC(=O)[C@H]4CCCN4C(=O)[C@@H](CC(C)C)NC(=O)c4ccc5c(c4)C(=O)OC54c5ccc(O)cc5Oc5cc(O)ccc54)cc3)C(C)C)cc2)cc1)C(=O)NCc1ccc(CC(=O)N[C@H](CCCNC(=N)N)C(=O)N[C@H](Cc2ccccc2)C(=O)N2CCC[C@@H]2C(=O)N[C@@H](C(=O)NCC(=O)NCc2ccc(CC(=O)N[C@H](CC(C)C)C(=O)N3CCC[C@@H]3C(=O)N[C@H](CCCNC(=N)N)C(=O)N[C@@H](C(=O)NCC(=O)NCc3ccc(CC(N)=O)cc3)[C@H](C)O)cc2)C(C)C)cc1` [ASGPR-9-14] (5FAM-[dL][dP][dE][dS]F[X1]G[dV][dP][dR]A[X1]G[dP][dR][dS]F[X1][dP][dR][dH]GL[X1][dR][dF][dP][dV]G[X1][dL][dP][dR][dT]G-{NHCH2C6H4(4-CH2CONH2)}): the Kd on ASGPR turned out to be 20 nM.
With `CC(C)C[C@H](NC(=O)[C@@H](CCCNC(=N)N)NC(=O)[C@@H](Cc1c[nH]c2ccccc12)NC(=O)Cc1ccc(CNC(=O)[C@H](Cc2ccccc2)NC(=O)[C@@H](CO)NC(=O)[C@@H](CCCNC(=N)N)NC(=O)Cc2ccc(CNC(=O)[C@@H](NC(=O)[C@@H](CO)NC(=O)[C@@H](Cc3ccc(O)cc3)NC(=O)Cc3ccc(CNC(=O)[C@H](CC(C)C)NC(=O)[C@@H](CC(C)C)NC(=O)[C@@H](Cc4ccc(O)cc4)NC(=O)c4ccc5c(c4)C(=O)OC54c5ccc(O)cc5Oc5cc(O)ccc54)cc3)C(C)C)cc2)cc1)C(=O)NCc1ccc(CC(=O)N[C@H](Cc2c[nH]c3ccccc23)C(=O)N[C@H](CCCNC(=N)N)C(=O)N[C@H](C(=O)NCc2ccc(CC(=O)N[C@H](CCCNC(=N)N)C(=O)N[C@H](Cc3ccc(O)cc3)C(=O)N[C@@H](CC(C)C)C(=O)NCc3ccc(CC(=O)N[C@H](CCC(=O)O)C(=O)N[C@H](Cc4ccc(O)cc4)C(=O)N[C@H](C(=O)NCc4ccc(CC(=O)N[C@H](CCCCN)C(=O)N[C@H](Cc5ccccc5)C(=O)N[C@@H](Cc5ccccc5)C(=O)NCc5ccc(CC(=O)N[C@H](Cc6ccc(O)cc6)C(=O)N[C@H](CCCNC(=N)N)C(=O)N[C@@H](Cc6ccccc6)C(=O)NCc6ccc(CC(N)=O)cc6)cc5)cc4)C(C)C)cc3)cc2)C(C)C)cc1` [IL6-65-1] (5FAM-[dY][dL]L[X1][dY][dS]V[X1][dR][dS]F[X1][dW][dR]L[X1][dW][dR]V[X1][dR][dY]L[X1][dE][dY]V[X1][dK][dF]F[X1][dY][dR]F-{NHCH2C6H4(4-CH2CONH2)}), the Kd on IL-6 (read-out: KD (nM) [95% conf. int], NNP2 library hit, target IL-6, one-site binding model) was found to be 500 nM.
`CC(C)C[C@H](NC(=O)[C@@H](CC(N)=O)NC(=O)[C@@H](CCCCN)NC(=O)Cc1ccc(CNC(=O)[C@H](C)NC(=O)[C@H](NC(=O)[C@@H](Cc2ccccc2)NC(=O)Cc2ccc(CNC(=O)[C@H](Cc3ccccc3)NC(=O)[C@@H](CCCCN)NC(=O)[C@@H](C)NC(=O)Cc3ccc(CNC(=O)[C@H](C)NC(=O)[C@@H](CCCNC(=N)N)NC(=O)[C@@H](Cc4ccccc4)NC(=O)Cc4ccc(CNC(=O)[C@H](C)NC(=O)[C@@H](CCCCN)NC(=O)[C@H]5CCCN5C(=O)Cc5ccc(CNC(=O)[C@H](Cc6ccccc6)NC(=O)[C@@H](C)NC(=O)[C@@H](C)NC(=O)Cc6ccc(CNC(=O)[C@H](Cc7ccccc7)NC(=O)[C@@H](CC(C)C)NC(=O)[C@@H](Cc7c[nH]cn7)NC(=O)c7ccc8c(c7)C(=O)OC87c8ccc(O)cc8Oc8cc(O)ccc87)cc6)cc5)cc4)cc3)cc2)[C@H](C)O)cc1)C(=O)NCc1ccc(CC(=O)N[C@@H](C(=O)N[C@H](Cc2c[nH]cn2)C(=O)N[C@@H](CC(C)C)C(=O)NCc2ccc(CC(=O)N[C@H](Cc3ccccc3)C(=O)N[C@H](CCCCN)C(=O)NCC(=O)NCc3ccc(CC(N)=O)cc3)cc2)[C@H](C)O)cc1` [IL6-65-2, Fluorescein-(D)His-(D)Leu-(L)Phe-PAM-(D)Ala-(D)Ala-(L)Phe-PAM-(D)Pro-(D)Lys-(L)Ala-PAM-(D)Phe-(D)Arg-(L)Ala-PAM-(D)Ala-(D)Lys-(L)Phe-PAM-(D)Phe-(D)Thr-(L)Ala-PAM-(D)Lys-(D)Asn- (L)Leu-PAM-(D)Thr-(D)His-(L)Leu-PAM-(D)Phe-(D)Lys-Gly-PAM] (5FAM-[dH][dL]F[X1][dA][dA]F[X1][dP][dK]A[X1][dF][dR]A[X1][dA][dK]F[X1][dF][dT]A[X1][dK][dN]L[X1][dT][dH]L[X1][dF][dK]G-{NHCH2C6H4(4-CH2CONH2)}) came in with a Kd at IL-6 (setting [1]) of 400 nM.
Still for that read-out and setting: as for `CC(C)C[C@H](NC(=O)[C@@H](CCCNC(=N)N)NC(=O)[C@@H](Cc1c[nH]c2ccccc12)NC(=O)Cc1ccc(CNC(=O)[C@H](Cc2ccccc2)NC(=O)[C@@H](CO)NC(=O)[C@@H](CCCNC(=N)N)NC(=O)Cc2ccc(CNC(=O)[C@H](Cc3ccccc3)NC(=O)[C@@H](CO)NC(=O)[C@@H](CCC(=O)O)NC(=O)Cc3ccc(CNC(=O)[C@H](Cc4ccccc4)NC(=O)[C@@H](Cc4c[nH]c5ccccc45)NC(=O)[C@@H](CCCNC(=N)N)NC(=O)c4ccc5c(c4)C(=O)OC54c5ccc(O)cc5Oc5cc(O)ccc54)cc3)cc2)cc1)C(=O)NCc1ccc(CC(=O)NCC(=O)N[C@H](C)C(=O)N[C@H](C(=O)NCc2ccc(CC(=O)N[C@H](CC(N)=O)C(=O)N[C@H](CCCNC(=N)N)C(=O)N[C@@H](Cc3ccccc3)C(=O)NCc3ccc(CC(=O)N[C@H](C)C(=O)N[C@H](CO)C(=O)N[C@@H](Cc4ccccc4)C(=O)NCc4ccc(CC(=O)N5CCC[C@@H]5C(=O)N[C@H](CCCNC(=N)N)C(=O)N[C@@H](C)C(=O)NCc5ccc(CC(=O)N[C@H](Cc6ccccc6)C(=O)N[C@H](CCCCN)C(=O)NCC(=O)NCc6ccc(CC(N)=O)cc6)cc5)cc4)cc3)cc2)C(C)C)cc1` [IL6-65-3, Fluorescein-(D)Arg-(D)Trp-(L)Phe-PAM-(D)Glu-(D)Ser-(L)Phe-PAM-(D)Arg-(D)Ser-(L)Phe-PAM-(D)Trp-(D)Arg-(L)Leu-PAM-Gly-(D)Ala-(L)Val-PAM-(D)Asn-(D)Arg-(L)Phe-PAM-(D)Ala-(D)Ser-(L)Phe- PAM-(D)Pro-(D)Arg-(L)Ala-PAM-(D)Phe-(D)Lys-Gly-PAM] (5FAM-[dR][dW]F[X1][dE][dS]F[X1][dR][dS]F[X1][dW][dR]L[X1]G[dA]V[X1][dN][dR]F[X1][dA][dS]F[X1][dP][dR]A[X1][dF][dK]G-{NHCH2C6H4(4-CH2CONH2)}), the figure is 90 nM; as for `CC(C)C[C@H](NC(=O)[C@@H](CCCCN)NC(=O)[C@@H](Cc1c[nH]cn1)NC(=O)Cc1ccc(CNC(=O)[C@H](CC(C)C)NC(=O)[C@@H](CCCNC(=N)N)NC(=O)[C@@H](Cc2c[nH]c3ccccc23)NC(=O)Cc2ccc(CNC(=O)[C@H](Cc3ccccc3)NC(=O)[C@@H](Cc3ccc(O)cc3)NC(=O)[C@@H](Cc3c[nH]cn3)NC(=O)Cc3ccc(CNC(=O)[C@H](CC(C)C)NC(=O)[C@@H](CCCNC(=N)N)NC(=O)[C@@H](CC(C)C)NC(=O)Cc4ccc(CNC(=O)[C@H](Cc5ccccc5)NC(=O)[C@@H](Cc5c[nH]c6ccccc56)NC(=O)[C@@H](CCCNC(=N)N)NC(=O)c5ccc6c(c5)C(=O)OC65c6ccc(O)cc6Oc6cc(O)ccc65)cc4)cc3)cc2)cc1)C(=O)NCc1ccc(CC(=O)N[C@H](C)C(=O)N[C@H](Cc2ccc(O)cc2)C(=O)NCC(=O)NCc2ccc(CC(=O)N[C@H](Cc3c[nH]cn3)C(=O)N[C@H](CCC(=O)O)C(=O)N[C@@H](CC(C)C)C(=O)NCc3ccc(CC(=O)N4CCC[C@@H]4C(=O)N[C@H](CCCNC(=N)N)C(=O)N[C@@H](C)C(=O)NCc4ccc(CC(=O)N[C@H](Cc5ccccc5)C(=O)N[C@H](CCCCN)C(=O)NCC(=O)NCc5ccc(CC(N)=O)cc5)cc4)cc3)cc2)cc1` [IL6-65-4, Fluorescein-(D)Arg-(D)Trp-(L)Phe-PAM-(D)Leu-(D)Arg-(L)Leu-PAM-(D)His-(D)Tyr-(L)Phe-PAM-(D)Trp-(D)Arg-(L)Leu-PAM-(D)His-(D)Lys-(L)Leu-PAM-(D)Ala-(D)Tyr-Gly-PAM-(D)His-(D)Glu-(L)Leu- PAM-(D)Pro-(D)Arg-(L)Ala-PAM-(D)Phe-(D)Lys-Gly-PAM] (5FAM-[dR][dW]F[X1][dL][dR]L[X1][dH][dY]F[X1][dW][dR]L[X1][dH][dK]L[X1][dA][dY]G[X1][dH][dE]L[X1][dP][dR]A[X1][dF][dK]G-{NHCH2C6H4(4-CH2CONH2)}), 37 nM.

For orientation: Kd means the equilibrium constant for the complex coming apart.
